{
  "source": "patent US11160862B2",
  "about": "“Nanoemulsion adjuvant for nasal mucosa and preparation method thereof” (NATIONAL HEALTH RESEARCH INSTITUTES, priority 2017, dated 2021)",
  "test_system": "B16-F10/OVA cells",
  "test": "Lung metastasis after intranasal melanoma vaccination, pathological observation of lung",
  "type": "in vivo",
  "conditions": "C57BL/6 mice inoculated with B16-F10/OVA cells, intranasal 100 μg/dose once a week for 3 weeks, one week after final vaccination",
  "experimental": "6-week old female C57BL/6 mice were intravascularly inoculated with B16-F10/OVA cells (melanoma cells expressing OVA epitopes, 5×10^5 cells/mouse). One week later, mice were divided into 4 groups (n=6 per group): vaccinated with PBS, ovalbumin (OVA), OVA adjuvanted with 0.1% PELC and OVA adjuvanted with nanoPELC. The mice were intranasally vaccinated with PBS or OVA formulation (100 μg/dose) once a week for 3 weeks. One week after the final vaccination, some of the mice were sacrificed, and the lung was isolated for pathological observation.",
  "data": [
    {"substance": "ovalbumin", "values": [
      {"measurement": "melanoma infection area in the lungs (lung metastasis)", "result": "not as serious as the PBS group, but it still had a certain area"}
    ]}
  ]
}
